Test results: PubChem BioAssay AID256 (DTP/NCI, 2004)
Values joined by “and” are separate entries in the source; they are usually repeats but may differ in a detail not shown here. Equal values may be shown once. Toxic doses and inconclusive results are not listed.

System: CD2F1 mice, L1210 leukemia ip, survival T/C
Test: NCI In Vivo Anticancer Drug Screen. Data for tumor model L1210 Leukemia (intraperitoneal) in CD2F1 (CDF1) mice
Conditions: higher = longer survival
Procedure, shortened: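 In this screen, transplantable tumors were grown in mice given either the compound or its vehicle. Results were expressed as the treated measurement relative to the control measurement.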

[1] = endpoint: mean survival time, dose: 100.0 mg/kg/injection, schedule: Q01DX009 (ip), vehicle: saline with Tween-80
[2] = endpoint: mean survival time, dose: 100.0 mg/kg/injection, schedule: Q04DX003 (ip), vehicle: saline with Tween-80
[3] = endpoint: mean survival time, dose: 200.0 mg/kg/injection, schedule: Q01DX009 (ip), vehicle: saline with Tween-80
[4] = endpoint: mean survival time, dose: 200.0 mg/kg/injection, schedule: Q04DX003 (ip), vehicle: saline with Tween-80
[5] = endpoint: mean survival time, dose: 400.0 mg/kg/injection, schedule: Q01DX009 (ip), vehicle: saline with Tween-80
[6] = endpoint: mean survival time, dose: 50.0 mg/kg/injection, schedule: Q01DX009 (ip), vehicle: saline with Tween-80
[7] = endpoint: mean survival time, dose: 400.0 mg/kg/injection, schedule: Q04DX003 (ip), vehicle: saline with Tween-80

O=[n+]1cc2ccccn2cc1-c1ccccc1
T/C [1]: 97 % of control | T/C [2]: 104 % of control | T/C [3]: 101 % of control | T/C [4]: 104 % of control | T/C [5]: 101 % of control

CC1OC(O[C@@H]2C=C3CC[C@@H]4[C@H](CC[C@]5(C)[C@@H](c6ccc(=O)oc6)CC[C@]45O)[C@@]3(C)CC2)C(O)C(O)C1O (some centres undefined)
T/C (endpoint: mean survival time, dose: 1.25 mg/kg/injection, schedule: Q01DX001 (sc), vehicle: steriod suspending solution): 101 % of control | T/C (endpoint: mean survival time, dose: 1.25 mg/kg/injection, schedule: Q01DX009 (sc), vehicle: steriod suspending solution): 94 % of control | T/C (endpoint: mean survival time, dose: 2.5 mg/kg/injection, schedule: Q01DX001 (sc), vehicle: steriod suspending solution): 101 % of control | T/C (endpoint: mean survival time, dose: 2.5 mg/kg/injection, schedule: Q01DX009 (sc), vehicle: steriod suspending solution): 97 % of control | T/C (endpoint: mean survival time, dose: 2.5 mg/kg/injection, schedule: Q04DX003 (sc), vehicle: steriod suspending solution): 93 % of control | T/C (endpoint: mean survival time, dose: 5.0 mg/kg/injection, schedule: Q01DX001 (sc), vehicle: steriod suspending solution): 98 % of control | T/C (endpoint: mean survival time, dose: 5.0 mg/kg/injection, schedule: Q01DX009 (sc), vehicle: steriod suspending solution): 95 % of control | T/C (endpoint: mean survival time, dose: 5.0 mg/kg/injection, schedule: Q04DX003 (sc), vehicle: steriod suspending solution): 95 % of control | T/C (endpoint: mean survival time, dose: 10.0 mg/kg/injection, schedule: Q01DX001 (sc), vehicle: steriod suspending solution): 101 % of control | T/C (endpoint: mean survival time, dose: 10.0 mg/kg/injection, schedule: Q01DX009 (sc), vehicle: steriod suspending solution): 95 % of control | T/C (endpoint: mean survival time, dose: 10.0 mg/kg/injection, schedule: Q04DX003 (sc), vehicle: steriod suspending solution): 112 % of control | T/C (endpoint: mean survival time, dose: 20.0 mg/kg/injection, schedule: Q01DX001 (sc), vehicle: steriod suspending solution): 103 % of control | T/C (endpoint: mean survival time, dose: 20.0 mg/kg/injection, schedule: Q04DX003 (sc), vehicle: steriod suspending solution): 101 % of control | T/C (endpoint: mean survival time, dose: 40.0 mg/kg/injection, schedule: Q04DX003 (sc), vehicle: steriod suspending solution): 95 % of control

COc1cc2c(c(OC)c1OC)-c1ccc(SC)c(=O)cc1[C@@H](NC(=O)CCl)CC2
T/C (endpoint: mean survival time, dose: 0.05 mg/kg/injection, schedule: Q01DX009 (ip), vehicle: water): 108 % of control | T/C (endpoint: mean survival time, dose: 0.1 mg/kg/injection, schedule: Q01DX009 (ip), vehicle: water): 106 % of control | T/C (endpoint: mean survival time, dose: 0.2 mg/kg/injection, schedule: Q01DX009 (ip), vehicle: water): 115 % of control | T/C (endpoint: mean survival time, dose: 0.4 mg/kg/injection, schedule: Q01DX009 (ip), vehicle: water): 108 % of control and 111 % of control | T/C (endpoint: mean survival time, dose: 0.8 mg/kg/injection, schedule: Q01DX009 (ip), vehicle: water): 120 % of control and 108 % of control

COc1cccc2c1C(=O)c1c(O)c3c(c(O)c1C2=O)C[C@@](O)(C(=O)CO)C[C@@H]3OC1CC(N)CC(C)O1 (some centres undefined)
T/C (endpoint: median survival time, dose: 0.75 mg/kg/injection, schedule: Q01DX009 (ip), vehicle: water): 154 % of control | T/C (endpoint: median survival time, dose: 1.5 mg/kg/injection, schedule: Q01DX009 (ip), vehicle: water): 200 % of control | T/C (endpoint: median survival time, dose: 3.0 mg/kg/injection, schedule: Q01DX009 (ip), vehicle: water): 108 % of control

N#CC1=C(NC2OCC(O)C(O)C2O)CCC1 (centres undefined)
T/C (endpoint: mean survival time, dose: 12.5 mg/kg/injection, schedule: Q01DX005 (ip), vehicle: other): 108 % of control | T/C (endpoint: mean survival time, dose: 25.0 mg/kg/injection, schedule: Q01DX005 (ip), vehicle: other): 95 % of control | T/C (endpoint: mean survival time, dose: 50.0 mg/kg/injection, schedule: Q01DX005 (ip), vehicle: other): 98 % of control | T/C (endpoint: mean survival time, dose: 100.0 mg/kg/injection, schedule: Q01DX005 (ip), vehicle: other): 98 % of control | T/C (endpoint: mean survival time, dose: 200.0 mg/kg/injection, schedule: Q01DX005 (ip), vehicle: other): 89 % of control

Nc1ncnc2cc3c(cc12)ncn3C1OC(CO)C(O)C1O (centres undefined)
T/C (endpoint: mean survival time, dose: 12.5 mg/kg/injection, schedule: Q01DX005 (ip), vehicle: water): 92 % of control | T/C (endpoint: mean survival time, dose: 25.0 mg/kg/injection, schedule: Q01DX005 (ip), vehicle: water): 104 % of control | T/C (endpoint: mean survival time, dose: 50.0 mg/kg/injection, schedule: Q01DX005 (ip), vehicle: water): 104 % of control | T/C (endpoint: mean survival time, dose: 100.0 mg/kg/injection, schedule: Q01DX005 (ip), vehicle: water): 112 % of control | T/C (endpoint: mean survival time, dose: 200.0 mg/kg/injection, schedule: Q01DX005 (ip), vehicle: water): 110 % of control

N#C/C(=C/C=C/c1ccccc1)c1ccc([N+](=O)[O-])cc1
T/C (endpoint: mean survival time, dose: 100.0 mg/kg/injection, schedule: Q04DX002 (ip), vehicle: other): 111 % of control | T/C (endpoint: mean survival time, dose: 200.0 mg/kg/injection, schedule: Q04DX002 (ip), vehicle: other): 100 % of control | T/C (endpoint: mean survival time, dose: 400.0 mg/kg/injection, schedule: Q04DX002 (ip), vehicle: other): 96 % of control

CCOC(=O)/N=C/N(C)C
T/C (endpoint: mean survival time, dose: 100.0 mg/kg/injection, schedule: Q01DX001 (ip), vehicle: saline): 100 % of control | T/C (endpoint: mean survival time, dose: 200.0 mg/kg/injection, schedule: Q01DX001 (ip), vehicle: saline): 109 % of control | T/C (endpoint: mean survival time, dose: 400.0 mg/kg/injection, schedule: Q01DX001 (ip), vehicle: saline): 103 % of control | T/C (endpoint: median survival time, dose: 25.0 mg/kg/injection, schedule: Q04DX003 (ip), vehicle: saline with Tween-80): 100 % of control | T/C (endpoint: median survival time, dose: 50.0 mg/kg/injection, schedule: Q04DX003 (ip), vehicle: saline with Tween-80): 100 % of control | T/C (endpoint: median survival time, dose: 100.0 mg/kg/injection, schedule: Q04DX003 (ip), vehicle: saline with Tween-80): 100 % of control

O=C(Nc1ccc(Cl)c(Cl)c1)Nc1ccc(Oc2ccc(Cl)cc2Cl)cc1S(=O)(=O)O
T/C (endpoint: mean survival time, dose: 100.0 mg/kg/injection, schedule: Q01DX001 (ip), vehicle: acetone): 102 % of control | T/C (endpoint: mean survival time, dose: 200.0 mg/kg/injection, schedule: Q01DX001 (ip), vehicle: acetone): 91 % of control | T/C (endpoint: mean survival time, dose: 400.0 mg/kg/injection, schedule: Q01DX001 (ip), vehicle: acetone): 94 % of control

COC(C(OC)N1CCOCC1)N1CCOCC1 (centres undefined)
T/C [2]: 89 % of control | T/C [4]: 89 % of control

O=C1C(c2ccccc2)=C(c2ccccc2)C(c2ccccc2)=C1c1ccccc1
T/C [6]: 95 % of control | T/C (endpoint: mean survival time, dose: 100.0 mg/kg/injection, schedule: Q01DX001 (ip), vehicle: saline with Tween-80): 97 % of control | T/C [1]: 91 % of control | T/C (endpoint: mean survival time, dose: 200.0 mg/kg/injection, schedule: Q01DX001 (ip), vehicle: saline with Tween-80): 87 % of control | T/C [3]: 88 % of control | T/C (endpoint: mean survival time, dose: 400.0 mg/kg/injection, schedule: Q01DX001 (ip), vehicle: saline with Tween-80): 91 % of control

CCc1ccc(C#N)cc1O
T/C [1]: 102 % of control | T/C [2]: 96 % of control | T/C [3]: 98 % of control | T/C [4]: 100 % of control | T/C [5]: 96 % of control | T/C [7]: 100 % of control

Fc1c(F)c(F)c(OP2(Oc3c(F)c(F)c(F)c(F)c3F)=NP(Oc3c(F)c(F)c(F)c(F)c3F)(Oc3c(F)c(F)c(F)c(F)c3F)=NP(Oc3c(F)c(F)c(F)c(F)c3F)(Oc3c(F)c(F)c(F)c(F)c3F)=N2)c(F)c1F
T/C [1]: 103 % of control | T/C [2]: 98 % of control | T/C [3]: 101 % of control | T/C [4]: 95 % of control | T/C [5]: 95 % of control | T/C [7]: 98 % of control

CNC(=O)SCc1ccc(Cl)cc1
T/C [2]: 98 % of control | T/C [4]: 96 % of control | T/C [7]: 102 % of control

O=[N+]([O-])c1ccc(C(F)(F)F)cc1
T/C [2]: 104 % of control | T/C [4]: 102 % of control

C=C1C(=C)C2C=CC1C1C3C(c4ccccn4)=NN=C(c4ccccn4)C3C21 (centres undefined)
T/C (endpoint: mean survival time, dose: 25.0 mg/kg/injection, schedule: Q04DX002 (ip), vehicle: saline with Tween-80): 95 % of control | T/C (endpoint: mean survival time, dose: 50.0 mg/kg/injection, schedule: Q04DX002 (ip), vehicle: saline with Tween-80): 98 % of control | T/C (endpoint: mean survival time, dose: 100.0 mg/kg/injection, schedule: Q04DX002 (ip), vehicle: saline with Tween-80): 98 % of control | T/C (endpoint: mean survival time, dose: 200.0 mg/kg/injection, schedule: Q04DX002 (ip), vehicle: saline with Tween-80): 88 % of control | T/C (endpoint: mean survival time, dose: 400.0 mg/kg/injection, schedule: Q04DX002 (ip), vehicle: saline with Tween-80): 103 % of control

COc1ccc(C(C#N)Nc2ccccc2)cc1 (centres undefined)
T/C [1]: 106 % of control | T/C (endpoint: mean survival time, dose: 100.0 mg/kg/injection, schedule: Q04DX003 (ip), vehicle: saline sonified): 97 % of control | T/C [3]: 104 % of control | T/C (endpoint: mean survival time, dose: 200.0 mg/kg/injection, schedule: Q04DX003 (ip), vehicle: saline sonified): 89 % of control | T/C [5]: 103 % of control | T/C (endpoint: mean survival time, dose: 400.0 mg/kg/injection, schedule: Q04DX003 (ip), vehicle: saline sonified): 103 % of control

Cc1ccc(S(=O)(=O)OC2CC3CC2C2C4C=CC(C4)C32)cc1 (centres undefined)
T/C [6]: 101 % of control | T/C [1]: 93 % of control | T/C [3]: 101 % of control

CC(=O)Nc1ccc(C(C)=O)cc1
T/C [2]: 108 % of control | T/C [4]: 106 % of control | T/C [7]: 93 % of control

c1ccc2c(c1)ccc1c2c[n+](CCCCCCCC[n+]2cc3c4ccccc4ccc3c3ccccc32)c2ccccc12
T/C (endpoint: mean survival time, dose: 1.56 mg/kg/injection, schedule: Q04DX003 (ip), vehicle: distilled water + Tween-80): 114 % of control | T/C (endpoint: mean survival time, dose: 3.13 mg/kg/injection, schedule: Q04DX003 (ip), vehicle: distilled water + Tween-80): 124 % of control

C1=CC2C=CC12 (centres undefined)
T/C [6]: 105 % of control | T/C [1]: 108 % of control | T/C [2]: 95 % of control | T/C [4]: 104 % of control

CC(=O)O[C@@H]1C[C@H](C)CC[C@H]1C(C)C
T/C [2]: 98 % of control | T/C [4]: 89 % of control
